# pIC50: −log10 of the molar value. Counter-ions that a name gives are not always drawn.
# Molecular target: T1, human PPAR γ 2 (Homo sapiens, UniProt P37231)
# T1 construct: expressed in transfected cells; host or cells: human osteosarcoma MG63, transiently co-transfected with pSG5-hPPARg and the reporter pGV-P2-PPRE
# T1 sequence (P37231 1-505): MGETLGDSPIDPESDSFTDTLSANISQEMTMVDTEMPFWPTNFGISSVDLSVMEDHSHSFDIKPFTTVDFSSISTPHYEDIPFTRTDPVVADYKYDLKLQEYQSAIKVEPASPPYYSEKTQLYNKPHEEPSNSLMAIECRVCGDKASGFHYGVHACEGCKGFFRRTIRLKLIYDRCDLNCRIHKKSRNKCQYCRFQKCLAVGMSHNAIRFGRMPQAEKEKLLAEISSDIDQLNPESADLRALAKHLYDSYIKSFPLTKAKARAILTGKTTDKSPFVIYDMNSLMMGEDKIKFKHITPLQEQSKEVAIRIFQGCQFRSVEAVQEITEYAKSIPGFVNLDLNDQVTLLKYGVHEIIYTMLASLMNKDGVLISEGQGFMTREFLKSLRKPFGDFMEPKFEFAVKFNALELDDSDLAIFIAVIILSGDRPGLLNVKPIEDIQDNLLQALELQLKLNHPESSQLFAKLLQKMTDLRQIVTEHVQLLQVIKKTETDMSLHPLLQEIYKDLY
# Experiment: Inhibitory activity against PPAR γ transcription in the presence of agonist compound A, luciferase reporter
# Type: cell-based
# Settings: in the presence of 10 nM compound A (agonist); MG63 cells transfected with pSG5-hPPARg and pGV-P2-PPRE; 24 hr
row,pIC50,Structure (SMILES)
1,7.48,"Cc1ccc(NC(=O)c2cc([N+](=O)[O-])ccc2Cl)cc1 [Example 1, N-(4-Methylphenyl)-(2-chloro-5-nitrophenyl)carboxamide]"
2,8.72,"O=C(Nc1ccc(-c2ccccc2)cc1)c1cc([N+](=O)[O-])ccc1Cl [Example 2, N-(4-Phenylphenyl)-(2-chloro-5-nitrophenyl)carboxamide]"
3,6.92,"Cc1cnc(NC(=O)c2cc([N+](=O)[O-])ccc2Cl)s1 [Example 4, N-(5-Methylthiazol-2-yl)-(2-chloro-5-nitrophenyl)carboxamide]"
4,7.09,"O=C(Nc1cccc(-c2ccccc2)c1)c1cc([N+](=O)[O-])ccc1Cl [Example 5, N-(3-Phenylphenyl)-(2-chloro-5-nitrophenyl)carboxamide]"
5,6.80,"COc1ccc(NC(=O)c2cc([N+](=O)[O-])ccc2Cl)cc1-c1ccccc1 [Example 6, N-(4-Methoxy-3-phenyl)phenyl-(2-chloro-5-nitrophenyl)carboxamide]"
6,8.23,"O=C(Nc1ccc(-c2ccccn2)cc1)c1cc([N+](=O)[O-])ccc1Cl [Example 8, N-[4-(2-Pyridyl)phenyl]-(2-chloro-5-nitrophenyl)carboxamide]"
7,7.15,"Cc1ccc2nc(-c3ccc(NC(=O)c4cc([N+](=O)[O-])ccc4Cl)cc3)sc2c1 [Example 10, N-[4-(6-Methylbenzothiazol-2-yl)phenyl]-(2-chloro-5-nitrophenyl)carboxamide]"
8,8.12,"CCCCCc1ccc(NC(=O)c2cc([N+](=O)[O-])ccc2Cl)cc1 [Example 16, N-(4-Pentylphenyl)-(2-chloro-5-nitrophenyl)carboxamide]"
9,7.82,"N#Cc1ccc(NC(=O)c2cc([N+](=O)[O-])ccc2Cl)cc1 [Example 20, N-(4-Cyanophenyl)-(2-chloro-5-nitrophenyl)carboxamide]"
10,8.20,"CCOC(=O)c1ccc(NC(=O)c2cc([N+](=O)[O-])ccc2Cl)cc1 [Example 26, N-(4-Ethoxycarbonylphenyl)-(2-chloro-5-nitrophenyl)carboxamide]"
11,6.64,"CC(C)(C)c1cc(NC(=O)c2cc([N+](=O)[O-])ccc2Cl)cc(C(C)(C)C)c1O [Example 29, N-(3,5-Di-t-butyl-4-hydroxyphenyl)-(2-chloro-5-nitrophenyl)carboxamide]"
12,7.92,"O=C(Nc1cccc(NS(=O)(=O)c2ccccc2)c1)c1cc([N+](=O)[O-])ccc1Cl [Example 30, N-(3-Benzensulfonylaminophenyl)-(2-chloro-5-nitrophenyl)carboxamide]"
13,7.52,"O=C(Nc1nc(-c2ccccc2)cs1)c1cc([N+](=O)[O-])ccc1Cl [Example 35, N-(4-Phenylthiazol-2-yl)-(2-chloro-5-nitrophenyl)carboxamide]"
14,7.82,"O=C(Nc1nc(-c2cccnc2)cs1)c1cc([N+](=O)[O-])ccc1Cl [Example 37, N-[4-(3-Pyridyl)thiazol-2-yl)-(2-chloro-5-nitrophenyl)carboxamide]"
15,7.35,"O=C(Nc1nc(-c2ccccn2)cs1)c1cc([N+](=O)[O-])ccc1Cl [Example 38, N-[4-(2-Pyridyl)thiazol-2-yl)-(2-chloro-5-nitrophenyl)carboxamide]"
16,7.40,"Cc1ccccc1-c1csc(NC(=O)c2cc([N+](=O)[O-])ccc2Cl)n1 [Example 39, N-[4-(2-Methylphenyl)thiazol-2-yl]-(2-chloro-5-nitrophenyl)carboxamide]"
17,7.24,"Cc1cccc(-c2csc(NC(=O)c3cc([N+](=O)[O-])ccc3Cl)n2)c1 [Example 40, N-[4-(3-Methylphenyl)thiazol-2-yl)-(2-chloro-5-nitrophenyl)carboxamide]"
18,7.11,"O=C(Nc1nc(-c2cccc3ccccc23)cs1)c1cc([N+](=O)[O-])ccc1Cl [Example 41, N-[4-(1-Naphthyl)thiazol-2-yl]-(2-chloro-5-nitrophenyl)carboxamide]"
19,7.08,"CCc1ccc(-c2csc(NC(=O)c3cc([N+](=O)[O-])ccc3Cl)n2)cc1 [Example 44, N-[4-(4-Ethylphenyl)thiazol-2-yl]-(2-chloro-5-nitrophenyl)carboxamide]"
20,7.27,"Cc1ccc(-c2nc(NC(=O)c3cc([N+](=O)[O-])ccc3Cl)sc2C)cc1Cl [Example 46, N-[4-(3-Chloro-4-methylphenyl)-5-methylthiazol-2-yl]-(2-chloro-5-nitrophenyl)carboxamide]"

row,pIC50,Structure (SMILES)
1,7.42,Cc1nc(NC(=O)c2cc([N+](=O)[O-])ccc2Cl)sc1C [Example 47]
2,6.96,"O=C(Nc1cccnc1)c1cc([N+](=O)[O-])ccc1Cl [Example 50, N-(3-Pyridyl)-(2-chloro-5-nitrophenyl)carboxamide]"
3,6.92,"Cc1cccc(NC(=O)c2cc([N+](=O)[O-])ccc2Cl)n1 [Example 51, N-(6-Methylpyridin-2-yl)-(2-chloro-5-nitrophenyl)carboxamide]"
4,6.68,"Cc1ccc(NC(=O)c2cc([N+](=O)[O-])ccc2Cl)nc1 [Example 52, N-(5-Methylpyridin-2-yl)-(2-chloro-5-nitrophenyl)carboxamide]"
5,6.47,"O=C(Nc1ccc2c3c(cccc13)CC2)c1cc([N+](=O)[O-])ccc1Cl [Example 54, N-(Acenaphthen-5-yl)-(2-chloro-5-nitrophenyl)carboxamide]"
6,8.55,"Nc1ccc(NC(=O)c2cc([N+](=O)[O-])ccc2Cl)cc1 [Example 58, N-(4-Aminophenyl)-(2-chloro-5-nitrophenyl)carboxamide mono-hydrochloride]"
7,7.43,"Cc1ccnc(NC(=O)c2cc([N+](=O)[O-])ccc2Cl)n1 [Example 65, N-(4-Methylpyrimidin-2-yl)-(2-chloro-5-nitrophenyl)carboxamide]"
8,7.08,"Cc1cc(Cl)nc(NC(=O)c2cc([N+](=O)[O-])ccc2Cl)n1 [Example 78, N-(4-Chloro-6-methylpyrimidin-2-yl)-(2-chloro-5-nitrophenyl)carboxamide]"
9,7.64,"O=C(Nc1c(Cl)ncnc1Cl)c1cc([N+](=O)[O-])ccc1Cl [Example 81, N-(4,6-Dichloropyrimidin-5-yl)-(2-chloro-5-nitrophenyl)carboxamide]"
10,6.40,"Cn1c(NC(=O)c2cc([N+](=O)[O-])ccc2Cl)nc2ccccc21 [Example 82, N-(1-Methylbenzimidazol-2-yl)-(2-chloro-5-nitrophenyl)carboxamide]"
11,7.04,"O=C(Nc1nncs1)c1cc([N+](=O)[O-])ccc1Cl [Example 85, N-(1,3,4-Thiadiazol-2-yl)-(2-chloro-5-nitrophenyl)carboxamide]"
12,6.15,"O=C(Nc1cccc2nsnc12)c1cc([N+](=O)[O-])ccc1Cl [Example 86, N-(2,1,3-Benzothiazol-4-yl)-(2-chloro-5-nitrophenyl)carboxamide]"
13,6.19,"O=C(Nc1ccc(S(=O)(=O)Nc2nccs2)cc1)c1cc([N+](=O)[O-])ccc1Cl [Example 96, N-[4-(Thiazol-2-yl)aminosulfonyl]phenyl-(2-chloro-5-nitrophenyl)carboxamide]"
14,6.17,Cc1cc(NS(=O)(=O)c2ccc(NC(=O)c3cc([N+](=O)[O-])ccc3Cl)cc2)no1 [Example 99]
15,6.31,"O=C(Nc1ccc(S(=O)(=O)Nc2ccc(Cl)nn2)cc1)c1cc([N+](=O)[O-])ccc1Cl [Example 102, N-[4-[(6-Chloropyridazin-3-yl)aminosulfonyl]phenyl]-(2-chloro-5-nitrophenyl)carboxamide]"
16,6.15,"COc1cnc(NS(=O)(=O)c2ccc(NC(=O)c3cc([N+](=O)[O-])ccc3Cl)cc2)nc1 [Example 105, N-[4-[(5-Methoxypyrimidin-2-yl)aminosulfonyl]phenyl]-(2-chloro-5-nitrophenyl)carboxamide]"
17,6.44,"N=C(N)NS(=O)(=O)c1ccc(NC(=O)c2cc([N+](=O)[O-])ccc2Cl)cc1 [Example 106, N-[4-(Amidinoaminosulfonyl)phenyl]-(2-chloro-5-nitrophenyl)carboxamide]"
18,7.23,"O=C(Nc1ccc(S(=O)(=O)Nc2ccnn2-c2ccccc2)cc1)c1cc([N+](=O)[O-])ccc1Cl [Example 108, N-[4-[(2-Phenyl-(2H)-pyrazol-3-yl)aminosulfonyl]phenyl]-(2-chloro-5-nitrophenyl)carboxamide]"
19,6.72,"O=C(Nc1nnc(-c2ccccc2)s1)c1cc([N+](=O)[O-])ccc1Cl [Example 110, N-(5-Phenyl-[1,3,4]thiadiazol-2-yl)-(2-chloro-5—nitrophenyl)carboxamide]"
20,7.57,"O=C(Nc1nc(-c2ccc(F)c(F)c2)cs1)c1cc([N+](=O)[O-])ccc1Cl [Example 111, N-[4-(3,4-Difluorophenyl)thiazol-2-yl]-(2-chloro-5-nitrophenyl)carboxamide]"

row,Structure (SMILES),pIC50
1,"CC(C)(C)OC(=O)Nc1ccc(-c2ccc(NC(=O)c3cc([N+](=O)[O-])ccc3Cl)cc2)cc1 [Example 87, N-[4-[4-(tert-Butoxycarbonylamino)phenyl]phenyl]-(2-chloro-5-nitrophenyl)carboxamide]",7.48
2,"Cc1ccc(S(=O)(=O)Nc2ccc(NC(=O)c3cc([N+](=O)[O-])ccc3Cl)cc2)cc1 [Example 116, N-[4-(4-Toluenesulfonylamino)phenyl]-(2-chloro-5-nitrophenyl)carboxamide]",7.26

# From patent US20030134859A1 (SANKYO COMPANY, LIMITED, priority 2000, published 2003)
